Laboratory results taken from patent US6878522B2, “Methods for the identification of compounds useful for the treatment of disease states mediated by prostaglandin D2” (priority 2000, dated 2005).

Legend:
CRTH2 [1] = molecular target: T1, CRTH2 (Homo sapiens, UniProt Q9Y5Y4); assay: Competition with 3H-PGD2 binding at the CRTH2 receptor (Examples 6-9); conditions: from IC50 at CRTH2 and at DP
T1 construct: prolactin (prolac) signal peptide (N); expressed in transfected cells; host or cells: 300-19 cells (transformed murine pre-B lymphocytes)
T1 sequence (Q9Y5Y4 1-395): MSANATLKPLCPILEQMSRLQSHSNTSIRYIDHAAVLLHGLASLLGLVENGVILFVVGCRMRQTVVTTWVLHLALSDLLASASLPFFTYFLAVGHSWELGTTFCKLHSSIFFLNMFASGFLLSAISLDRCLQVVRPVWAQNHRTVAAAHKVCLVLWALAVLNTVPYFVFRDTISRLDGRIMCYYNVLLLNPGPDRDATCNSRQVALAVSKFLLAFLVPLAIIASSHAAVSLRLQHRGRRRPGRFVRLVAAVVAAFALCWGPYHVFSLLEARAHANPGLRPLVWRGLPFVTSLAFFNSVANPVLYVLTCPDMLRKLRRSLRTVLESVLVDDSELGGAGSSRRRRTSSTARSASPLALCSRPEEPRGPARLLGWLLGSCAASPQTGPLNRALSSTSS
Protocol: To directly determine the binding affinity of CRTH2 for PGD2, the following binding assay was used. Transfected and parental 300-19 cells were washed twice at room temperature with assay buffer, and resuspended at a concentration of 2×10^7 cells/ml. Using a 96-well U-bottom polypropylene plate (Costar, Corning Inc., Acton, Mass.), the assay was set up as follows: 50 μl of vehicle (0.3% DMSO in assay buffer, total wells) or of […] cold PGD2 (NS wells); 50 μl cells (2×10^7 cells/ml for 10^6 cells per well); 50 μl 6 nM [3H]-PGD2. The plate was allowed to incubate for 20 min at RT before centrifugation (2800 rpm, Sorval RT6000, 5 min, 4° C.). The plate was harvested (Packard Unifilter plate GF/C, previously soaked in 3% PEI for at least 1 hr) with cold assay buffer using a Packard Filtermate Cell Harvester (6×150 μl buffer wash per well). The filterplate was dried overnight. After the addition of 50 μl scintillation fluid (Packard Microscint 0), the plate was counted in a Packard Topcount scintillation counter (1 min per well). […] The solutions of labeled PGD2 and unlabeled “cold” PGD2 were prepared as follows: 10 μl of [^3H]-PGD2 (Amersham lot # TRK734 162 Ci/mmol, 0.1 Ci/ml in methanol: water: acetonitrile (3:2:1), 617 nM) per ml assay buffer was used to prepare a solution of [^3H]-PGD2 at a concentration of 6 nM (50 μl/well for final conc. of 2 nM); cold PGD2 (Biomol #PG-005, lot # P4653) was dissolved in DMSO for a stock of 10 mM (stored at −20° C.). The 10 mM stock was diluted 3:1000 to obtain a final concentration of […] (50 μl/well for final conc. of […]). Assay buffer: Hank's balanced saline supplemented with HEPES and sodium bicarbonate: 100 ml/L of 10× Hank's Balanced saline (with Ca^+2, Mg^+2); 10 ml/L of 1M HEPES; 4.7 ml/L of 7.5% Sodium Bicarbonate.
In the assay, the capacity of each D-ring compound to compete with binding of ^3H-PGD2 was measured at both the CRTH2 and DP receptors, and an IC50 value (in μM) was determined. […] The binding assay procedure of Example 1 was used. Preferably, the ratio of IC50 at CRTH2 to IC50 at DP is less than about twenty, and more preferably is […].

[2] = test system: isolated human eosinophils; assay: Reactive oxygen species (ROS) release in isolated human eosinophils; type: cell-based
Protocol: Another secondary assay is the reactive oxygen species release assay. One measure of PGD2-induced activation of CRTH2 cells, such as eosinophils, is the intracellular release of reactive oxygen species. This can be tested in a reactive oxygen species release assay, or ROS, using lucigenin-dependent chemiluminescence to measure reactive oxygen species release. In this method, freshly isolated eosinophils are prepared, by standard methods, and resuspended at concentration 2-4×10^6 cells/ml in (RPMI; 10 mM HEPES; 1× Pen/Strep; 0.5% FBS) at room temperature. Immediately prior to use, 1 ml of cell suspension is added to 9 ml of buffer, prewarmed to 37° C. for 15 minutes, and added 0.5 ml of 200 mM Lucigenin.
Test compounds (made as 10,000× DMSO stocks) are diluted in buffer with DMSO (1.5 ul of DMSO/2.5 ml Buffer) and 25 μl/well added to white 96-well culture plate and placed in a 37° C. incubator. Isolated cells (held at room temperature) are diluted with room temperature buffer to 2-4×10^6 cells/ml, and incubated in a water bath at 37° C. for 15 minutes. At 15 minutes, 0.5 ml 200 mM lucigenin (bis-N-Methylacridinium Nitrate; Sigma, St. Louis, Mo.) is added to 10 ml of the cell suspension, mixed, and 100 μl/well is added to the prewarmed microtiter plate. The plate is returned to 37° C. for 5 minutes, at which time 25 μl of stimulus is added) The plate is read in the luminometer for 8 cycles. The luminescence of test compounds can be tested in the presence of PGD2, relative to a control sample containing PGD2 alone. A compound that interferes with the ability of PGD2 to result in intracellular reactive oxygen species release in CRTH2 cells, is a candidate for a CRTH2 antagonist.

[3] = test system: isolated human eosinophils; assay: [Ca2+]i mobilization in isolated human eosinophils; type: cell-based
Text: Calcium mobilization can be detected and measured by flow cytometry, and by labeling with fluorescent dyes that are trapped intracellularly. […] The ratio of fluorescence produced by the calcium-bound dye to that produce by the unbound dye is used to estimate the intracellular calcium concentration. In one embodiment, for example, the following method can be used. Cells that express CRTH2 are collected, and resuspended in fresh media at ˜2×10^5/ml the day before performing the calcium flux assay. Cells are incubated at 37° C. for not longer than 20-30 minutes, and then spun down and resuspended in 50 ml fresh PTI buffer (Hank's Buffer, pH 7.2-7.4; 10 mM Hepes; 1.6 mM CaCl2) containing Indo-1 AM, pre-warmed to 37° C., at a concentration of 10 million per ml. Cells are excited, and fluorescence is measured using a fluorimeter (Photon Technology Corporation, International). After the readout has stabilized, the time axis is reset, and PGD2 is added at a specific time point (e.g., 20 seconds). After response, the following reagents are added to the cuvette, to release and chelate total calcium, in the following order: 20 μl of 18% Triton X-100, 20 μl of 3M Tris, pH 8.5, and 20 μl of 0.5 M EGTA, pH 8.5. The experiment is repeated in the presence and the absence of a test compound. […] Therefore, in the presence of an […] test compound, the EC50 would be expected to be higher than this value, whereas in the presence of an agonist test compound, the EC50 would be expected to decrease.

[4] = test system: isolated human eosinophils; assay: Chemotaxis of isolated human eosinophils; type: cell-based
Protocol: In a specific example of this method, a competitive assay is performed to test compounds for their ability to interrupt the attraction of CRTH2 cells to PGD2. In this method, test compounds are diluted into the bottom wells of the Boyden chemotaxis chamber. A constant amount of PGD2 is also added to this dilution series, at a concentration known to have a chemotactic effect on CRTH2 cells. As a control, at least one aliquot contains only PGD2. Cells expressing CRTH2 are resuspended at 3-3.5×10^6 cells/ml in RPMI 1640 supplemented with 10 mM HEPES and 1 mg/ml bovine serum albumin (Sigma, St. Louis, Mo.), and placed into the upper wells of the chamber. The chambers are incubated for 90-120 minutes at 37° C. in a humidified CO2 incubator. After the incubation period, the number of migrating cells on the lower surface of the membrane filter is counted using light microscopy. The contribution of the test compound to the chemotactic activity of PGD2 is measured by comparing the chemotactic activity of the aliquots containing only PGD2 with the activity of aliquots containing test compound and PGD2. If addition of the test compound to the PGD2 solution results in a […] in the number of cells detected on the lower surface of the membrane relative to the number of cells detected using a solution containing only PGD2, then there is identified an antagonist of PGD2 induction of chemotactic activity of cells expressing CRTH2. In contrast, if the addition of the test compound to the PGD2 solution results in a […] in the number of cells detected on the lower surface of the membrane (relative to the number of cells detected using a solution containing only PGD2), then an […] of PGD2 induction of chemotactic activity of cells expressing CRTH2 is identified.
The chemotactic response of human T lymphocytes to PGD2, murine MDC and murine mSDF was also assayed. Chemotaxis was determined using a 48-well Boyden chamber (Neuroprobe, Cabin John, Md.), and 3.0 μm polycarbonate filters. Cells were resuspended (3-3.5×10^6 cells/ml) in RPMI 1640 supplemented with 10 mM HEPES and 1 mg/ml bovine serum albumin (Sigma, St. Louis, Mo.), and placed into the upper wells of the chamber. The compound to be tested was placed in the lower wells. The chambers were incubated for 90-120 minutes at 37° C. in a humidified CO2 incubator. At the end of the incubation period, the number of migrating cells on the filter (expressed per high power field) were enumerated microscopically. […] In FIG. 4, the chemotactic response of human basophils to PGD2 and C5a is shown.

[5] = test system: human whole blood eosinophil; assay: Human whole blood eosinophil actin-polymerization response; type: cell-based; conditions: read-out: Actin-polymer EC50
Text: Yet another secondary screening assay is an actin polymerization assay. Another biological effect of the interaction of PGD2 with CRTH2 is actin polymerization. Thus, an actin polymerization assay may be used as a secondary screen to characterize the activity of a compound isolated in the primary screening assays of the invention. In one embodiment, actin polymerization may be assayed using an actin-specific fluorescent label, nitrobenzoxadiazole (NBD)-phallacidin, which binds polymerized actin fiber. In a specific embodiment, the assay may be performed as follows: cell preparations are resuspended at 5-10×10^6 cells/ml in RPMI 1640 plus 10 mM HEPES, 100/10 Pen/Strep, and 0.5% FCS. The cell suspension is aliquoted (100 μL per well) into a 96-well U-bottom polypropylene microtiter plate. 50 ul of the appropriate stimulus (PGD2 or test compound, or both PGD2 and test compound) is added using an 8-channel pipette followed exactly 25 seconds later by 50 ul of a stopping solution which contains lysophosphotidylcholine (0.5 mg/ml), Hank's balanced salt solution (100 ul 10×), 16% formaldehyde (800 ul), and 6.6 uM NBD-phallacidin in MEOH (100 ul). The plate is allowed to sit at room temperature for 15 minutes. The plate is then centrifuged at 1000 rpm for 5 minutes, the supernatants flicked off and the cell pellets resuspended in 250 ul PBS plus 2%FCS and 0.2% sodium azide. Each sample is then read on a FACS Caliber instrument. Cells are gated using the forward scatter/side scatter data in the lymphocyte area. Responses are measured by the change in median FL-1 fluorescence between vehicle treated cells and stimulus treated cells. Test compounds can be assayed in the presence and absence of PGD2, and compared to a sample containing PGD2 alone. A compound that reduces PGD2-induced actin polymerization of CRTH2 cells is identified as a candidated CRTH2 antagonist.

CRTH2 [6] = molecular target: T1, CRTH2; assay: [Ca2+]i mobilization assay in 300-19 cells expressing CRTH2; type: cell-based; conditions: CRTH2 stable cell line (300-19 transfectants)
Text: Using 300-19 cells (transformed pre-B lymphocytes) expressing CRTH2, a number of mast cell and non-mast cell-derived mediators were screened in a [Ca^2+]i mobilization assay. […]

selectivity for the CRTH2 receptor (in comparison with DP) (CRTH2 [1])	EC50 [2] [nM]	EC50 [3] [nM]	EC50 [4] [nM]	EC50 [5] [nM]	EC50 (CRTH2 [6]) [nM]	Molecule
	> 1000	> 1000	> 100	> 100000		CCCCC[C@H](O)/C=C/[C@@H]1[C@H]2C/C(=C/CCCC(=O)O)O[C@H]2C[C@H]1O [PG12]
	> 100	> 1000	> 100	> 100000		CCCCC[C@H](O)/C=C/[C@H]1[C@H](O)CC(=O)[C@@H]1CCCCCCC(=O)O [PGE1]

Further lines, the molecule ahead of its results:

Molecule	selectivity for the CRTH2 receptor (in comparison with DP) (CRTH2 [1])	EC50 [2] [nM]	EC50 [3] [nM]	EC50 [4] [nM]	EC50 [5] [nM]	EC50 (CRTH2 [6]) [nM]
CCCCCC(=O)CCC1C(=O)CC(O)C1C/C=C\CCCC(=O)O (stereo not drawn) [13,14-dihydro-15-keto PGD2]	particularly selective for CRTH2					
CCCCC[C@@](C)(O)/C=C/[C@H]1C(=O)C[C@H](O)[C@@H]1C/C=C\CCCC(=O)O [15(R)15-methyl PGD2]	particularly selective for CRTH2					
CCCCC/C=C\C=C1\C(=O)CC(O)C1C/C=C\CCCC(=O)O (stereo not drawn) [15-deoxy-delta 12, 14, PGD2]	particularly selective for CRTH2					
CCCCC[C@H](O)/C=C/[C@@H]1[C@@H](C/C=C\CCCC(=O)O)[C@H]2CO[C@@H]1C2 [Compound U-46619]		> 100	> 1000			
CCCCC[C@H](O)/C=C/[C@@H]1[C@@H](C/C=C\CCCC(=O)O)[C@@H](O)C[C@@H]1O [Pa, 11b-PGF2]		> 100		> 100	> 1000	
PGJ2		75	130	> 100	1800	200
